Values joined by “and” are separate entries in the source; they are usually repeats but may differ in a detail not shown here. Identical values can stand only once. Toxic doses and inconclusive results are not listed. Square brackets hold non-standard residues; d marks the D form. Peptide text beside a SMILES is read from it. * marks the point of attachment. ξ: configuration not given here. Tos = Cc1ccc(S(=O)(=O)*)cc1; ξY = NC(Cc1ccc(O)cc1)C(=O)O
System: L1210 leukemia ip in BDF1 mice, survival T/C
Assay: NCI In Vivo Anticancer Drug Screen. Data for tumor model L1210 Leukemia (intraperitoneal) in B6D2F1 (BDF1) mice
Settings: endpoint: mean survival time, higher = longer survival
How it was run: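 In this screen, tumor-bearing mice given compound are compared to those given vehicle, and their survival values are reported as a treated-to-control quotient.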

[1] = dose: 100.0 mg/kg/injection, schedule: Q01DX009 (ip), vehicle: saline with Tween-80
[2] = dose: 200.0 mg/kg/injection, schedule: Q01DX009 (ip), vehicle: saline with Tween-80
[3] = dose: 100.0 mg/kg/injection, schedule: Q01DX001 (ip), vehicle: saline
[4] = dose: 100.0 mg/kg/injection, schedule: Q01DX001 (ip), vehicle: saline with Tween-80

In the case of `CCC[CH2][Sn]([CH2]CCC)([CH2]CCC)[O]C(=O)CC[S][Sn]([CH2]CCC)([CH2]CCC)[CH2]CCC`, the T/C (dose: 0.5 mg/kg/injection, schedule: Q01DX015 (ip), vehicle: saline) is reported as 97 % of control, the T/C (dose: 1.0 mg/kg/injection, schedule: Q01DX015 (ip), vehicle: saline) is reported as 100 % of control and the T/C (dose: 2.0 mg/kg/injection, schedule: Q01DX015 (ip), vehicle: saline) is reported as 95 % of control. For the same compound, the T/C (dose: 2.5 mg/kg/injection, schedule: Q01DX001 (ip), vehicle: saline) was 103 % of control, the T/C (dose: 4.0 mg/kg/injection, schedule: Q01DX015 (ip), vehicle: saline) was 87 % of control and the T/C (dose: 5.0 mg/kg/injection, schedule: Q01DX001 (ip), vehicle: saline) was 100 % of control. For the same compound, the T/C (dose: 10.0 mg/kg/injection, schedule: Q01DX001 (ip), vehicle: saline) was 105 % of control and the T/C (dose: 20.0 mg/kg/injection, schedule: Q01DX001 (ip), vehicle: saline) was 97 % of control.
`CCC(C)C(CN)(CCCN1CCOCC1)c1cccc2ccccc12` (centres undefined) was tested, and the T/C (dose: 100.0 mg/kg/injection, schedule: Q04DX003 (ip), vehicle: saline with Tween-80) was 93 % of control, the T/C (dose: 200.0 mg/kg/injection, schedule: Q04DX003 (ip), vehicle: saline with Tween-80) was 95 % of control and the T/C (dose: 400.0 mg/kg/injection, schedule: Q04DX003 (ip), vehicle: saline with Tween-80) was 95 % of control.
`O=S(=O)(c1ccc(NC(=S)NC(Cc2ccccc2)c2ccccc2)cc1)N1CCCCC1` (centres undefined) was tested, and the T/C (dose: 100.0 mg/kg/injection, schedule: Q04DX003 (ip), vehicle: carboxymethylcellulose (CMC)) was 91 % of control, the T/C (dose: 200.0 mg/kg/injection, schedule: Q04DX003 (ip), vehicle: carboxymethylcellulose (CMC)) was 89 % of control and the T/C (dose: 400.0 mg/kg/injection, schedule: Q04DX003 (ip), vehicle: carboxymethylcellulose (CMC)) was 93 % of control.
In the case of `O=C(Nc1ccc(C(=O)c2ccccc2)cc1)c1ccccc1`, the T/C (dose: 100.0 mg/kg/injection, schedule: Q04DX003 (ip), vehicle: Klucel (hydroxypropylcellulose) (HPC)) is reported as 104 % of control, the T/C (dose: 200.0 mg/kg/injection, schedule: Q04DX003 (ip), vehicle: Klucel (hydroxypropylcellulose) (HPC)) is reported as 108 % of control and the T/C (dose: 400.0 mg/kg/injection, schedule: Q04DX003 (ip), vehicle: Klucel (hydroxypropylcellulose) (HPC)) is reported as 98 % of control.
With `C=CCNC(=S)Nc1cccc(C(C)O)c1` (centres undefined) the T/C (dose: 100.0 mg/kg/injection, schedule: Q01DX009 (ip), vehicle: saline) was 107 % of control, the T/C (dose: 100.0 mg/kg/injection, schedule: Q04DX002 (ip), vehicle: saline) was 89 % of control and the T/C (dose: 200.0 mg/kg/injection, schedule: Q01DX009 (ip), vehicle: saline) was 112 % of control. For the same compound, the T/C (dose: 200.0 mg/kg/injection, schedule: Q04DX002 (ip), vehicle: saline) was 89 % of control and the T/C (dose: 400.0 mg/kg/injection, schedule: Q04DX002 (ip), vehicle: saline) was 96 % of control.
For `N#CCCc1c(O)ccc2ccccc12`, the T/C [1] was 105 % of control, the T/C [2] was 102 % of control and the T/C (dose: 400.0 mg/kg/injection, schedule: Q01DX009 (ip), vehicle: saline with Tween-80) was 105 % of control.
`CCC[CH2][Sn]1([CH2]CCC)[O]C(=O)C2C(C(=O)[O]1)C1(Cl)C(Cl)=C(Cl)C2(Cl)C1(Cl)Cl` (centres undefined) was tested, and the T/C (dose: 44.0 mg/kg/injection, schedule: Q01DX001 (ip), vehicle: saline) was 98 % of control, the T/C (dose: 45.0 mg/kg/injection, schedule: Q01DX001 (ip), vehicle: saline) was 97 % of control and the T/C (dose: 67.0 mg/kg/injection, schedule: Q01DX001 (ip), vehicle: saline) was 95 % of control and 101 % of control. The T/C [3] was 98 % of control and 103 % of control and the T/C (dose: 150.0 mg/kg/injection, schedule: Q01DX001 (ip), vehicle: saline) was 123 % of control.
In the case of `O=P(O)(O)OP(=O)(O)OP(=O)(O)OCC1OC(N2C=NC3C4NC=CN4CNC32)C(O)C1O` (centres undefined), the T/C (dose: 3.13 mg/kg/injection, schedule: Q03HX024 (ip), vehicle: saline) is reported as 97 % of control, the T/C (dose: 6.25 mg/kg/injection, schedule: Q03HX024 (ip), vehicle: saline) is reported as 93 % of control and the T/C (dose: 7.5 mg/kg/injection, schedule: Q03HX024 (ip), vehicle: saline) is reported as 95 % of control. The T/C (dose: 15.0 mg/kg/injection, schedule: Q03HX024 (ip), vehicle: saline) was 93 % of control.
For `N#CC(c1ccc(Cl)cc1)C(C/C(=N/Nc1ccc([N+](=O)[O-])cc1[N+](=O)[O-])c1ccccc1)c1ccccc1` (centres undefined), the T/C (dose: 25.0 mg/kg/injection, schedule: Q01DX001 (ip), vehicle: saline with Tween-80) was 91 % of control, the T/C (dose: 50.0 mg/kg/injection, schedule: Q01DX001 (ip), vehicle: saline with Tween-80) was 93 % of control and the T/C [4] was 95 % of control.
For `Cc1ccc(S(=O)(=O)OC2(C(=O)c3ccccc3)CC3CCC2C3)cc1` (centres undefined), the T/C (dose: 50.0 mg/kg/injection, schedule: Q01DX001 (ip), vehicle: Klucel (hydroxypropylcellulose) (HPC)) was 93 % of control, the T/C (dose: 100.0 mg/kg/injection, schedule: Q01DX001 (ip), vehicle: Klucel (hydroxypropylcellulose) (HPC)) was 96 % of control and the T/C (dose: 200.0 mg/kg/injection, schedule: Q01DX001 (ip), vehicle: Klucel (hydroxypropylcellulose) (HPC)) was 94 % of control.
With `O=C(OCC1OCOC1C1OCOC1COC(=O)c1ccccc1)c1ccccc1` (centres undefined) the T/C [3] was 96 % of control, the T/C (dose: 200.0 mg/kg/injection, schedule: Q01DX001 (ip), vehicle: saline) was 94 % of control and the T/C (dose: 400.0 mg/kg/injection, schedule: Q01DX001 (ip), vehicle: saline) was 88 % of control.
With `O=C(Cl)C1CCCCC1` the T/C (dose: 6.25 mg/kg/injection, schedule: Q01DX015 (ip), vehicle: saline) was 93 % of control, the T/C (dose: 12.5 mg/kg/injection, schedule: Q01DX015 (ip), vehicle: saline) was 89 % of control and the T/C (dose: 25.0 mg/kg/injection, schedule: Q01DX015 (ip), vehicle: saline) was 93 % of control and 96 % of control. The T/C (dose: 50.0 mg/kg/injection, schedule: Q01DX015 (ip), vehicle: saline) was 90 % of control.
In the case of `C#CCN1C(=O)C(c2ccccc2)C2(CCN(C)CC2)C1=O` (centres undefined), the T/C [4] is reported as 105 % of control and the T/C (dose: 200.0 mg/kg/injection, schedule: Q01DX001 (ip), vehicle: saline with Tween-80) is reported as 108 % of control.
In the case of `Cc1cc2nc(C(O)C(O)C(O)C(O)c3nc4cc(C)c(C)cc4[nH]3)[nH]c2cc1C` (centres undefined), the T/C (dose: 100.0 mg/kg/injection, schedule: Q01DX001 (ip), vehicle: other) is reported as 98 % of control, the T/C (dose: 200.0 mg/kg/injection, schedule: Q01DX001 (ip), vehicle: other) is reported as 87 % of control and the T/C (dose: 400.0 mg/kg/injection, schedule: Q01DX001 (ip), vehicle: other) is reported as 104 % of control.
With `CSc1ccc(OC(=O)Nc2ccc(C)c([N+](=O)[O-])c2)cc1C` the T/C [1] was 89 % of control and the T/C [2] was 89 % of control.
`CC(=O)OC1CCC2(C)C(=CC(=O)C3C4CCC(C(C)C)C4CCC32)C1` (centres undefined) was tested, and the T/C (dose: 75.0 mg/kg/injection, schedule: Q01DX009 (sc), vehicle: steriod suspending solution) was 95 % of control, the T/C (dose: 75.0 mg/kg/injection, schedule: Q04DX003 (sc), vehicle: steriod suspending solution) was 94 % of control and the T/C (dose: 150.0 mg/kg/injection, schedule: Q01DX009 (sc), vehicle: steriod suspending solution) was 109 % of control. For the same compound, the T/C (dose: 150.0 mg/kg/injection, schedule: Q04DX003 (sc), vehicle: steriod suspending solution) was 98 % of control, the T/C (dose: 300.0 mg/kg/injection, schedule: Q01DX009 (sc), vehicle: steriod suspending solution) was 108 % of control and the T/C (dose: 300.0 mg/kg/injection, schedule: Q04DX003 (sc), vehicle: steriod suspending solution) was 94 % of control.
For `COC(C/C=C\C=C\CC/C=C/CC(C)/C=C/C(=C\C(=O)O)CC(=O)O)/C(C)=C\C=C(/C)C(=O)O` (centres undefined), the T/C (dose: 0.5 mg/kg/injection, schedule: Q01DX001 (ip), vehicle: saline) was 101 % of control, the T/C (dose: 1.0 mg/kg/injection, schedule: Q01DX001 (ip), vehicle: saline) was 102 % of control and the T/C (dose: 2.0 mg/kg/injection, schedule: Q01DX001 (ip), vehicle: saline) was 102 % of control. For the same compound, the T/C (dose: 4.0 mg/kg/injection, schedule: Q01DX001 (ip), vehicle: saline) was 104 % of control and the T/C (dose: 8.0 mg/kg/injection, schedule: Q01DX001 (ip), vehicle: saline) was 101 % of control.
In the case of `COC(=O)C(Cc1ccc(O)cc1)NC(=O)CNS(=O)(=O)c1ccc(C)cc1` (stereo not drawn) (Tos-Gly-[ξY]-OMe), the T/C (dose: 100.0 mg/kg/injection, schedule: Q04DX003 (ip), vehicle: other) is reported as 105 % of control, the T/C (dose: 200.0 mg/kg/injection, schedule: Q04DX003 (ip), vehicle: other) is reported as 94 % of control and the T/C (dose: 400.0 mg/kg/injection, schedule: Q04DX003 (ip), vehicle: other) is reported as 104 % of control.
With `COc1cccc(NC(=O)N(CCCl)N=O)c1` the T/C (dose: 4.5 mg/kg/injection, schedule: Q01DX001 (ip), vehicle: carboxymethylcellulose (CMC)) was 122 % of control, the T/C (dose: 18.0 mg/kg/injection, schedule: Q01DX001 (ip), vehicle: carboxymethylcellulose (CMC)) was 159 % of control and the T/C (dose: 26.0 mg/kg/injection, schedule: Q01DX001 (ip), vehicle: carboxymethylcellulose (CMC)) was 151 % of control. For the same compound, the T/C (dose: 40.0 mg/kg/injection, schedule: Q01DX001 (ip), vehicle: carboxymethylcellulose (CMC)) was 188 % of control, the T/C (dose: 60.0 mg/kg/injection, schedule: Q01DX001 (ip), vehicle: carboxymethylcellulose (CMC)) was 87 % of control and the T/C (dose: 93.0 mg/kg/injection, schedule: Q01DX001 (ip), vehicle: carboxymethylcellulose (CMC)) was 87 % of control.

— PubChem BioAssay AID248 (DTP/NCI, 2004)
